Legend:
[1] = molecular target: T1, LPAR1 (Homo sapiens, UniProt Q92633); assay: LPAR1 FLIPR Assay; format: cell-based; settings: U2OS cells stably expressing LPAR1, LPA (EC80), Calcium 6 FLIPR dye; for Emax: read-out: Maximum Inhibition
T1 construct: host or cells: U2OS
Outline: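 U2OS cells stably expressing LPAR1 were loaded with Calcium 6 dye for 2 h at 37° C, preincubated 3 min with compound (11-point 3-fold series), then stimulated with LPA at EC80. Fluorescence at 515-575 nm was recorded by FLIPR; IC50 came from four-parameter logistic fits of ratio data.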

[2] = molecular target: T1, LPAR1; assay: IP-One HTRF Assay; format: cell-based; settings: U2OS cells stably expressing LPAR1, LPA stimulation, IP-One Tb HTRF kit; for Emax: read-out: Maximum Inhibition
Experimental: U2OS cells stably expressing LPAR1 (Life Technologies #K1519A) were plated at 20000 cells/well in growth medium (McCoy's 5A(Life Technologies #16600-082)) with 10% dFBS (Life Technologies #26400-036), 0.1 mM non-essential amino acids, 25 mM HEPES, 1 mM sodium pyruvate, 1% penicillin/streptomycin, 50 μg/mL hygromycin, and 100 μg/mL Geneticin® in tissue culture treated 384-well white plates (Greiner #781080) in humidified 5% CO2 at 37° C. overnight. On the day of the assay, culture medium was replaced with 30 μL/well of McCoy's 5A with 0.1% BSA. Cells were incubated in humidified 5% CO2 at 37° C. for 3 more hours. Compounds were 3-fold serial diluted from 2 mM for 11-points using dimethyl sulfoxide. 1 μL of compound in DMSO was diluted in 50 μL stimulation buffer from an IP-One Tb HTRF kit (Cisbio #62IPAPEB) immediately before assay. 15 μL/well of 1.33× compound in stimulation buffer was added to cells after removal of culture medium. After 20 minutes of incubation at 37° C., 5 μL/well of 8 μM LPA diluted in stimulation buffer with 0.1% fatty acid free BSA was added to cells. […]. To EC100 wells were added 4×20 μM LPA. To the cells were added 5 μL/well IP1-d2 conjugate and 5 μLwell IP1-K antibody after 2 hours of incubation at 37° C. Cells were incubated at room temperature for 1 hour (protected from light). The plate was then read at 665 nm and 615 nm using an EnVision® Multilabel Plate Reader. IC50 values were calculated from curve fits of the ratio data using a four-parameter logistic Hill equation (Assay Explorer 3.3 Client).

T1 sequence (Q92633 whole entry): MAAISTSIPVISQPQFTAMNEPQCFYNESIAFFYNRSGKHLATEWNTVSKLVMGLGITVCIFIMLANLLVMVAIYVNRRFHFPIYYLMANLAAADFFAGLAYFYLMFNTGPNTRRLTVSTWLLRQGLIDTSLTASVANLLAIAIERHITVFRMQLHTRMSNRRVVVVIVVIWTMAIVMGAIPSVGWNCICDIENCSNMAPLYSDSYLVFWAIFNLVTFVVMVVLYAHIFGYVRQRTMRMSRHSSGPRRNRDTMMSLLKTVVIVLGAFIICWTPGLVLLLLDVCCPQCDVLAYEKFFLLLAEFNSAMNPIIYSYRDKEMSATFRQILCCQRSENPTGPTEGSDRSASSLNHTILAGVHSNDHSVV

Row | SMILES | IC50 [1] | Emax [1] | IC50 [2] | Emax [2]
1 | COc1cc(C(=O)N(CCCc2ccccc2)CCC[C@@H](C)C(=O)O)cc(OC)c1C (single isomer, unassigned) [Example 77] | 20 nM | 100% | 77 nM | 84%
2 | COc1cc(C(=O)N(CCCc2ccccc2)CC(=O)NC2(C(=O)O)CC2)cc(OC)c1C [Example 3, 1-{[N-(3,5-dimethoxy-4-methylbenzoyl)-N-(3-phenylpropyl)glycyl]amino}cyclopropane-1-carboxylic Acid] | 71 nM | 52% | 4270 nM | 76%
3 | COc1cc(C(=O)N(CCCCC(=O)O)CCCc2ccccc2)cc(OC)c1C [Example 4, 5-[(3,5-dimethoxy-4-methylbenzoyl)(3-phenylpropyl)amino]pentanoic Acid] | 14 nM | 98% | 115 nM | 93%
4 | COc1cc(C(=O)N(CCCc2ccccc2)CCOCC(=O)O)cc(OC)c1C [Example 6, {2-[(3,5-dimethoxy-4-methylbenzoyl)(3-phenylpropyl)amino]ethoxy}acetic Acid] | 11 nM | 94% | 183 nM | 97%
5 | COc1ccc(C2(C(=O)N(CCCCC(=O)O)CCCc3ccccc3)CC2)cc1 [Example 8, 5-{[1-(4-methoxyphenyl)cyclopropane-1-carbonyl](3-phenylpropyl)amino}pentanoic Acid] | 17 nM | 86% | 2250 nM | 84%
6 | COc1cc(C(=O)N(CCCCC(=O)O)CCCc2ccccc2)cc(OC)c1OC [Example 10, 5-[(3-phenylpropyl)(3,4,5-trimethoxybenzoyl)amino]pentanoic Acid] | 64 nM | 92% | 333 nM | 77%
7 | COc1cc(C(=O)N(CCCCC(=O)O)CCCc2ccccc2)cc(OC)c1Br [Example 20, 5-[(4-bromo-3,5-dimethoxybenzoyl)(3-phenylpropyl)amino]pentanoic Acid] | 20 nM | 99% | 50 nM | 102%
8 | COc1cc(C(=O)N(CCCCC(=O)O)CCCc2ccccc2F)cc(OC)c1C [Example 32, 5-{(3,5-dimethoxy-4-methylbenzoyl)[3-(2-fluorophenyl)propyl]amino}pentanoic Acid] | 18 nM | 98% | 321 nM | 88%
9 | COc1cc(C(=O)N(CCCCC(=O)O)CCCc2cccc(F)c2)cc(OC)c1C [Example 33, 5-{(3,5-dimethoxy-4-methylbenzoyl)[3-(3-fluorophenyl)propyl]amino}pentanoic Acid] | 19 nM | 99% | 166 nM | 76%
10 | COc1cc(C(=O)N(CCCCC(=O)O)CCCc2ccc(F)cc2)cc(OC)c1C [Example 34, 5-{(3,5-dimethoxy-4-methylbenzoyl)[3-(4-fluorophenyl)propyl]amino}pentanoic Acid] | 24 nM | 96% | 880 nM | 70%
11 | COc1cc(C(=O)N(CCCCC(=O)O)CCCc2ccccc2)cc(OC)c1C1CC1 [Example 35, 5-[(4-cyclopropyl-3,5-dimethoxybenzoyl)(3-phenylpropyl)amino]pentanoic Acid] | 32 nM | 98% | 59 nM | 94%
12 | COc1cc(C(=O)N(CCCCC(=O)O)CCCc2ccccc2)cc(OC)c1C(F)(F)F [Example 37, 5-{[3,5-dimethoxy-4-(trifluoromethyl)benzoyl](3-phenylpropyl)amino}pentanoic Acid] | 32 nM | 96% | 69 nM | 79%
13 | COc1cc(C(=O)N(CCCCC(=O)O)CCCc2cccc(Cl)c2)cc(OC)c1C [Example 38, 5-{[3-(3-chlorophenyl)propyl](3,5-dimethoxy-4-methylbenzoyl)amino}pentanoic Acid] | 14 nM | 99% | 194 nM | 90%

From US20190119200A1, “TERTIARY AMIDES AND METHOD OF USE” (AbbVie Inc., priority 2016, published 2019)
